According to the NIST ThermoML archive (doi:10.1016/j.jct.2007.08.005):
± gives the expanded uncertainty stated by the source.

Key:
[1] = 308.15 K, 101.33 kPa, Liquid; for speed of sound: Sing-around technique in a fixed-path interferometer; for mass density: Vibrating tube method
[2] = xn = mol fraction of the nth substance listed; details: 308.15 K, 101 kPa, Liquid; for excess molar volume: Direct dilatometry; for speed of sound: Sing-around technique in a fixed-path interferometer

OCCO [1,2-ethanediol]
[1]
Details | speed of sound [m/s] | viscosity [mPa·s]
– | 1633.4 ± 1.1 | 11.35 ± 0.23

OCCCCCO [1,5-pentanediol]
[1]
Details | mass density [kg/m3] | speed of sound [m/s] | viscosity [mPa·s]
– | 974.3 ± 4.2 | 1566.1 ± 4.1 | 64 ± 2.2

OCCCCCO [1,5-pentanediol] + O=C1CCCN1
[2]
Details | excess molar volume [m3/mol] | speed of sound [m/s] | viscosity [mPa·s]
x1 = 0.0022 | 1e-09 ± 5e-09 | – | –
x1 = 0.009 | 3e-09 ± 5e-09 | – | –
x1 = 0.0129 | 5e-09 ± 5e-09 | – | –
x1 = 0.0168 | 6e-09 ± 5e-09 | – | –
x1 = 0.0269 | 1e-08 ± 5e-09 | – | –
x1 = 0.0298 | – | 1597.5 ± 1.4 | 9.401 ± 0.18
x1 = 0.0326 | 1.5e-08 ± 5e-09 | – | –
x1 = 0.0454 | 1.7e-08 ± 5e-09 | – | –
x1 = 0.0514 | – | 1595.7 ± 1.5 | 9.774 ± 0.19
x1 = 0.0619 | 2.7e-08 ± 5e-09 | – | –
x1 = 0.0915 | 3.4e-08 ± 5e-09 | – | –
x1 = 0.1017 | – | 1591.8 ± 1.6 | 10.74 ± 0.21
x1 = 0.1149 | 4e-08 ± 5e-09 | – | –
x1 = 0.1375 | 4.4e-08 ± 5e-09 | – | –
x1 = 0.1536 | – | 1588.7 ± 1.7 | 11.8 ± 0.23
x1 = 0.1895 | 5.2e-08 ± 5e-09 | – | –
x1 = 0.2008 | – | 1586.9 ± 1.9 | 12.89 ± 0.25
x1 = 0.2539 | 5.9e-08 ± 5e-09 | – | –
x1 = 0.293 | 6.4e-08 ± 5e-09 | – | –
x1 = 0.2942 | – | 1583.5 ± 2.1 | 15.32 ± 0.3
x1 = 0.3268 | 6.7e-08 ± 5e-09 | – | –
x1 = 0.3769 | 7e-08 ± 5e-09 | – | –
x1 = 0.3886 | – | 1580.9 ± 2.4 | 18.07 ± 0.37
x1 = 0.4209 | 7e-08 ± 5e-09 | – | –
x1 = 0.4564 | 7.1e-08 ± 5e-09 | – | –
x1 = 0.479 | – | 1578.8 ± 2.6 | 21.15 ± 0.44
x1 = 0.5091 | 7e-08 ± 5e-09 | – | –
x1 = 0.5407 | 6.9e-08 ± 5e-09 | – | –
x1 = 0.5779 | 6.6e-08 ± 5e-09 | – | –
x1 = 0.582 | – | 1577.1 ± 2.9 | 24.71 ± 0.54
x1 = 0.601 | 6.1e-08 ± 5e-09 | – | –
x1 = 0.6363 | 5.6e-08 ± 5e-09 | – | –
x1 = 0.6673 | 5.3e-08 ± 5e-09 | – | –
x1 = 0.6827 | – | 1575.3 ± 3.2 | 29.13 ± 0.66
x1 = 0.7035 | 4.7e-08 ± 5e-09 | – | –
x1 = 0.7347 | 4.2e-08 ± 5e-09 | – | –
x1 = 0.7812 | – | 1573 ± 3.5 | 36.21 ± 0.85
x1 = 0.7879 | 3.3e-08 ± 5e-09 | – | –
x1 = 0.822 | 2.8e-08 ± 5e-09 | – | –
x1 = 0.8319 | – | 1571.6 ± 3.6 | 41.2 ± 0.99
x1 = 0.8461 | 2.6e-08 ± 5e-09 | – | –
x1 = 0.8694 | 2.3e-08 ± 5e-09 | – | –
x1 = 0.8947 | 1.8e-08 ± 5e-09 | – | –
x1 = 0.9095 | – | 1569.4 ± 3.8 | 50.56 ± 0.95
x1 = 0.9143 | 1.3e-08 ± 5e-09 | – | –
x1 = 0.9392 | – | 1568.6 ± 3.9 | 54.65 ± 1.1
x1 = 0.9428 | 1.1e-08 ± 5e-09 | – | –
x1 = 0.9583 | 7e-09 ± 5e-09 | – | –
x1 = 0.9749 | – | 1567.3 ± 4 | 59.95 ± 1.4
x1 = 0.9783 | 3e-09 ± 5e-09 | – | –

O=C1CCCN1 [2-pyrrolidinone]
[1]
Details | mass density [kg/m3] | speed of sound [m/s] | viscosity [mPa·s]
– | 1097.14 ± 0.4 | 1600 ± 1.4 | 8.922 ± 0.19

OCCCO [propan-1,3-diol]
[1]
Details | mass density [kg/m3] | speed of sound [m/s] | viscosity [mPa·s]
– | 1042.7 ± 0.34 | 1604.5 ± 1.4 | 26.44 ± 0.59
